Data published in ChEMBL document CHEMBL5678810.

Assays:
[1] = target: Mitogen-activated protein kinase kinase kinase 5 (Homo sapiens) (UniProt Q99683); assay: Inhibition of T7 bacteriophage fused human ASK1 at 10 uM by KINOMEscan analysis relative to control
[2] = target: Cyclin-dependent kinase 18 (Homo sapiens) (UniProt Q07002); assay: Inhibition of T7 bacteriophage fused human PCTK3 at 10 uM by KINOMEscan analysis relative to control
[3] = target: Dual specificity mitogen-activated protein kinase kinase 7 (Homo sapiens) (UniProt O14733); assay: Inhibition of T7 bacteriophage fused human MKK7 at 10 uM by KINOMEscan analysis relative to control
[4] = system: Tyrosine-protein kinase ABL1 (Homo sapiens), P00519 [M351T]; assay: Inhibition of T7 bacteriophage fused human phosphorylated ABL1 M351T mutant at 10 uM by KINOMEscan analysis relative to control
[5] = target: LIM domain kinase 1 (Homo sapiens) (UniProt P53667); assay: Inhibition of T7 bacteriophage fused human LIMK1 at 10 uM by KINOMEscan analysis relative to control; values are per cent of control
[6] = target: Cyclin-dependent kinase-like 1 (Homo sapiens) (UniProt Q00532); assay: Inhibition of T7 bacteriophage fused human CDKL1 at 10 uM by KINOMEscan analysis relative to control
[7] = system: Epidermal growth factor receptor (Homo sapiens), P00533 [UNDEFINED MUTATION]; assay: Inhibition of T7 bacteriophage fused human EGFR L747/S752del/P753S mutant at 10 uM by KINOMEscan analysis relative to control; values are per cent of control
[8] = target: Dual specificity mitogen-activated protein kinase kinase 5 (Homo sapiens) (UniProt Q13163); assay: Inhibition of T7 bacteriophage fused human MEK5 at 10 uM by KINOMEscan analysis relative to control; values are per cent of control
[9] = target: Mitogen-activated protein kinase kinase kinase 3 (Homo sapiens) (UniProt Q99759); assay: Inhibition of T7 bacteriophage fused human MAP3K3 at 10 uM by KINOMEscan analysis relative to control
[10] = system: Epidermal growth factor receptor (Homo sapiens), P00533 [UNDEFINED MUTATION]; assay: Inhibition of T7 bacteriophage fused human EGFR S752-I759del mutant at 10 uM by KINOMEscan analysis relative to control; values are per cent of control
[11] = target: Protein kinase C iota type (Homo sapiens) (UniProt P41743); assay: Inhibition of T7 bacteriophage fused human PRKCI at 10 uM by KINOMEscan analysis relative to control
[12] = target: Death-associated protein kinase 3 (Homo sapiens) (UniProt O43293); assay: Inhibition of T7 bacteriophage fused human DAPK3 at 10 uM by KINOMEscan analysis relative to control; values are per cent of control
[13] = target: Non-receptor tyrosine-protein kinase TNK1 (Homo sapiens) (UniProt Q13470); assay: Inhibition of T7 bacteriophage fused human TNK1 at 10 uM by KINOMEscan analysis relative to control
[14] = target: Homeodomain-interacting protein kinase 1 (Homo sapiens) (UniProt Q86Z02); assay: Inhibition of T7 bacteriophage fused human HIPK1 at 10 uM by KINOMEscan analysis relative to control
[15] = target: Receptor-interacting serine/threonine-protein kinase 1 (Homo sapiens) (UniProt Q13546); assay: Inhibition of T7 bacteriophage fused human RIPK1 at 10 uM by KINOMEscan analysis relative to control
[16] = target: Homeodomain-interacting protein kinase 3 (Homo sapiens) (UniProt Q9H422); assay: Inhibition of T7 bacteriophage fused human HIPK3 at 10 uM by KINOMEscan analysis relative to control; values are per cent of control
[17] = target: Mitogen-activated protein kinase kinase kinase 15 (Homo sapiens) (UniProt Q6ZN16); assay: Inhibition of T7 bacteriophage fused human MAP3K15 at 10 uM by KINOMEscan analysis relative to control; values are per cent of control
[18] = target: Inhibitor of nuclear factor kappa-B kinase subunit beta (Homo sapiens) (UniProt O14920); assay: Inhibition of T7 bacteriophage fused human IKK-beta at 10 uM by KINOMEscan analysis relative to control
[19] = target: Mitogen-activated protein kinase 14 (Homo sapiens) (UniProt Q16539); assay: Inhibition of T7 bacteriophage fused human p38-alpha at 10 uM by KINOMEscan analysis relative to control; values are per cent of control
[20] = system: Tyrosine-protein kinase ABL1 (Homo sapiens), P00519 [E255K]; assay: Inhibition of T7 bacteriophage fused human phosphorylated ABL1 E255K mutant at 10 uM by KINOMEscan analysis relative to control
[21] = system: Epidermal growth factor receptor (Homo sapiens), P00533 [L858R]; assay: Inhibition of T7 bacteriophage fused human EGFR L858R mutant at 10 uM by KINOMEscan analysis relative to control; values are per cent of control
[22] = target: Casein kinase I isoform gamma-1 (Homo sapiens) (UniProt Q9HCP0); assay: Inhibition of T7 bacteriophage fused human CSNK1G1 at 10 uM by KINOMEscan analysis relative to control
[23] = target: Mitogen-activated protein kinase 11 (Homo sapiens) (UniProt Q15759); assay: Inhibition of T7 bacteriophage fused human p38-beta at 10 uM by KINOMEscan analysis relative to control; values are per cent of control
[24] = target: Cyclin-dependent kinase 11B (Homo sapiens) (UniProt P21127); assay: Inhibition of T7 bacteriophage fused human CDK11 at 10 uM by KINOMEscan analysis relative to control
[25] = target: Ribosomal protein S6 kinase alpha-4 (Homo sapiens) (UniProt O75676); assay: Inhibition of T7 bacteriophage fused human N-terminal RPS6KA4 Kinase domain-1 at 10 uM by KINOMEscan analysis relative to control
[26] = target: Hepatocyte growth factor receptor (Homo sapiens) (UniProt P08581); assay: Inhibition of T7 bacteriophage fused human MET at 10 uM by KINOMEscan analysis relative to control
[27] = target: Casein kinase I isoform gamma-2 (Homo sapiens) (UniProt P78368); assay: Inhibition of T7 bacteriophage fused human CSNK1G2 at 10 uM by KINOMEscan analysis relative to control
[28] = target: Serine/threonine-protein kinase Nek7 (Homo sapiens) (UniProt Q8TDX7); assay: Inhibition of T7 bacteriophage fused human NEK7 at 10 uM by KINOMEscan analysis relative to control
[29] = target: Serine/threonine-protein kinase STK11 (Homo sapiens) (UniProt Q15831); assay: Inhibition of LKB1 Lys2 labeling site in human HEL cell lysate at 10 uM by KiNativ profiling analysis relative to control; format: subcellular

Chain of Epidermal growth factor receptor (Homo sapiens), P00533 [UNDEFINED MUTATION] (P00533 whole entry, looked up, stated change not applied, the tested form may be a part): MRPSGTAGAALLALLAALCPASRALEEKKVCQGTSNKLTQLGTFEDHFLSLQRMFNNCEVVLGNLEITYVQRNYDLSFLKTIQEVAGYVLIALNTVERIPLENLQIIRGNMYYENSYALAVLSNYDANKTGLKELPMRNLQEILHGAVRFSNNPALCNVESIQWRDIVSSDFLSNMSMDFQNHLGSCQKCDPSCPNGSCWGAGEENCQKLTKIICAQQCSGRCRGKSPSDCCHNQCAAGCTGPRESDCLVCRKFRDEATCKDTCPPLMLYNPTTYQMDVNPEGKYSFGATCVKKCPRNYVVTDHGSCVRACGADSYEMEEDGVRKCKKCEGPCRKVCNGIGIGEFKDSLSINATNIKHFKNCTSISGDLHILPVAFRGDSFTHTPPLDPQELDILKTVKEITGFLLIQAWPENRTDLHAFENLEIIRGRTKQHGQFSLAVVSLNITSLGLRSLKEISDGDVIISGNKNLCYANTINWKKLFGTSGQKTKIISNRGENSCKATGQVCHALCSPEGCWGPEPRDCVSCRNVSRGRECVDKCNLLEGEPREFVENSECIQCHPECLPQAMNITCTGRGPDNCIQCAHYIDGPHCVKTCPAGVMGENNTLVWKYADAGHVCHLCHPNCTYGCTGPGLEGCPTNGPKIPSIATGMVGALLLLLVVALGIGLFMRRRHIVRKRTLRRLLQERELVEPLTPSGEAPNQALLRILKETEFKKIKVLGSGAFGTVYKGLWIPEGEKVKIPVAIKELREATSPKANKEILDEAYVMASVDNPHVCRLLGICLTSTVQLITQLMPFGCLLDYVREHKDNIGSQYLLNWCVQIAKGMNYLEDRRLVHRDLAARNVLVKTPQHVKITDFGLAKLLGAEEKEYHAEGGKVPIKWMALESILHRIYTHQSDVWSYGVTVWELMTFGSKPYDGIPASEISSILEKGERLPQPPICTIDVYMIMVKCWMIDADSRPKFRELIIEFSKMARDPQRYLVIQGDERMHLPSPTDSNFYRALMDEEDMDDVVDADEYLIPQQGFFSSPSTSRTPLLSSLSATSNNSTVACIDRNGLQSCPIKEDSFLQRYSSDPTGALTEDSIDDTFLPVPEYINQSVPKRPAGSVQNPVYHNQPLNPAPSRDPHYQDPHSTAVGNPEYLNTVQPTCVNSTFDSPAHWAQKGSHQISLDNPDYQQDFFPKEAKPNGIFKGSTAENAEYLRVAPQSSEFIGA
Chain of Mitogen-activated protein kinase 11 (Homo sapiens) (Q15759 whole entry, the tested form may be a part): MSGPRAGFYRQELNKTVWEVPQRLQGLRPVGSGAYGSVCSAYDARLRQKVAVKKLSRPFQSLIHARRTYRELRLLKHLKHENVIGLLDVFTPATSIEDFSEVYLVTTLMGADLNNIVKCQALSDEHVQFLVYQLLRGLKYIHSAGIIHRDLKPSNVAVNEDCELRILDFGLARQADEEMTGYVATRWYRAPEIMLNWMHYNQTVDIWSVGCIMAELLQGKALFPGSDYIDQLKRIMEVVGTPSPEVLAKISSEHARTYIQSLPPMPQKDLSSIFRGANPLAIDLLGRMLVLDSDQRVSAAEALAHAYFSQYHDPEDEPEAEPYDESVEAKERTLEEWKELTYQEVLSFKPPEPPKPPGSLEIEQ
Chain of Cyclin-dependent kinase 11B (Homo sapiens) (P21127 whole entry, the tested form may be a part): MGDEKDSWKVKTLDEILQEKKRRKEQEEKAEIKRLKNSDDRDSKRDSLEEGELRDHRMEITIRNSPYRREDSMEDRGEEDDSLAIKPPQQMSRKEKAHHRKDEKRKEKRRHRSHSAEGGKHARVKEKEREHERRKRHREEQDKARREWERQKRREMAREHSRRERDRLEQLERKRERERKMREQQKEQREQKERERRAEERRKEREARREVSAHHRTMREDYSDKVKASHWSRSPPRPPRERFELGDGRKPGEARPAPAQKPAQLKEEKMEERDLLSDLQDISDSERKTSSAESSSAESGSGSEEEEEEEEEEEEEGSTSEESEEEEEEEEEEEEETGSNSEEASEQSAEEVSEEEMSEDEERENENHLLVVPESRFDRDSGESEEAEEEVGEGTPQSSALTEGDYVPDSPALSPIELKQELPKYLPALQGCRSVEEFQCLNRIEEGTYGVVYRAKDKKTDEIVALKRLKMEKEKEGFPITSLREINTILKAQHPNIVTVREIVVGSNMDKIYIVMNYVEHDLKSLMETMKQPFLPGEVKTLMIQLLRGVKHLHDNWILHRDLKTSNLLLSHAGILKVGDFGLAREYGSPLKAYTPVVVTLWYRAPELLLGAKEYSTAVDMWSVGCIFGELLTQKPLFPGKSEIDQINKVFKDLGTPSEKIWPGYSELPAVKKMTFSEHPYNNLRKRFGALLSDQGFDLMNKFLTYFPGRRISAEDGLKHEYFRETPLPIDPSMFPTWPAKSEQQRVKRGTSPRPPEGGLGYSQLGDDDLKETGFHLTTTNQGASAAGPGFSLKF
Chain of Serine/threonine-protein kinase Nek7 (Homo sapiens) (Q8TDX7 whole entry, looked up, the tested form may be a part): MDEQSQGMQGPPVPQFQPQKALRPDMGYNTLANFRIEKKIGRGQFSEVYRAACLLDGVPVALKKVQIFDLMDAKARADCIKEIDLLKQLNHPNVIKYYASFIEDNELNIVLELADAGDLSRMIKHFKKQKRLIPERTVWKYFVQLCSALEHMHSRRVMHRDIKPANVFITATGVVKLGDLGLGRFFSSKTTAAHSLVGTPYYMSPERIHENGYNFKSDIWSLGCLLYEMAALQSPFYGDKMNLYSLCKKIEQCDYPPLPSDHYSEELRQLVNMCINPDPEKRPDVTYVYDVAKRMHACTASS
Chain of Protein kinase C iota type (Homo sapiens) (P41743 whole entry, the tested form may be a part): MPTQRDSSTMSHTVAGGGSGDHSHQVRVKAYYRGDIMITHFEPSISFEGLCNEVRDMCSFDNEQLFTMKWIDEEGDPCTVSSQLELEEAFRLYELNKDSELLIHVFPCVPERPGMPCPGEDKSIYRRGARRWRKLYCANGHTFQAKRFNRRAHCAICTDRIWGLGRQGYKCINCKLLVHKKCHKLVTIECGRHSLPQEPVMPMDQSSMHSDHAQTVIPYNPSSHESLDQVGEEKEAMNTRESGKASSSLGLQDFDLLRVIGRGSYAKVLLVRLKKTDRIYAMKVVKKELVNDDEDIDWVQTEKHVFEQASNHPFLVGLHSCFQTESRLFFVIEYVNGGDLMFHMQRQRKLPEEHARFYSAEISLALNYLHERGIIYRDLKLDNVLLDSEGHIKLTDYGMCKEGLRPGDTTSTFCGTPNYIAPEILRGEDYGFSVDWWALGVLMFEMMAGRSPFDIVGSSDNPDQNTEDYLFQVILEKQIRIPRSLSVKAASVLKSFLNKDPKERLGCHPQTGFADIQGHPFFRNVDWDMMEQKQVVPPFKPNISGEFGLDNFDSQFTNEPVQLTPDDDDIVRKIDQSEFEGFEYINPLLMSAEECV
Chain of Mitogen-activated protein kinase kinase kinase 5 (Homo sapiens) (Q99683 whole entry, the tested form may be a part): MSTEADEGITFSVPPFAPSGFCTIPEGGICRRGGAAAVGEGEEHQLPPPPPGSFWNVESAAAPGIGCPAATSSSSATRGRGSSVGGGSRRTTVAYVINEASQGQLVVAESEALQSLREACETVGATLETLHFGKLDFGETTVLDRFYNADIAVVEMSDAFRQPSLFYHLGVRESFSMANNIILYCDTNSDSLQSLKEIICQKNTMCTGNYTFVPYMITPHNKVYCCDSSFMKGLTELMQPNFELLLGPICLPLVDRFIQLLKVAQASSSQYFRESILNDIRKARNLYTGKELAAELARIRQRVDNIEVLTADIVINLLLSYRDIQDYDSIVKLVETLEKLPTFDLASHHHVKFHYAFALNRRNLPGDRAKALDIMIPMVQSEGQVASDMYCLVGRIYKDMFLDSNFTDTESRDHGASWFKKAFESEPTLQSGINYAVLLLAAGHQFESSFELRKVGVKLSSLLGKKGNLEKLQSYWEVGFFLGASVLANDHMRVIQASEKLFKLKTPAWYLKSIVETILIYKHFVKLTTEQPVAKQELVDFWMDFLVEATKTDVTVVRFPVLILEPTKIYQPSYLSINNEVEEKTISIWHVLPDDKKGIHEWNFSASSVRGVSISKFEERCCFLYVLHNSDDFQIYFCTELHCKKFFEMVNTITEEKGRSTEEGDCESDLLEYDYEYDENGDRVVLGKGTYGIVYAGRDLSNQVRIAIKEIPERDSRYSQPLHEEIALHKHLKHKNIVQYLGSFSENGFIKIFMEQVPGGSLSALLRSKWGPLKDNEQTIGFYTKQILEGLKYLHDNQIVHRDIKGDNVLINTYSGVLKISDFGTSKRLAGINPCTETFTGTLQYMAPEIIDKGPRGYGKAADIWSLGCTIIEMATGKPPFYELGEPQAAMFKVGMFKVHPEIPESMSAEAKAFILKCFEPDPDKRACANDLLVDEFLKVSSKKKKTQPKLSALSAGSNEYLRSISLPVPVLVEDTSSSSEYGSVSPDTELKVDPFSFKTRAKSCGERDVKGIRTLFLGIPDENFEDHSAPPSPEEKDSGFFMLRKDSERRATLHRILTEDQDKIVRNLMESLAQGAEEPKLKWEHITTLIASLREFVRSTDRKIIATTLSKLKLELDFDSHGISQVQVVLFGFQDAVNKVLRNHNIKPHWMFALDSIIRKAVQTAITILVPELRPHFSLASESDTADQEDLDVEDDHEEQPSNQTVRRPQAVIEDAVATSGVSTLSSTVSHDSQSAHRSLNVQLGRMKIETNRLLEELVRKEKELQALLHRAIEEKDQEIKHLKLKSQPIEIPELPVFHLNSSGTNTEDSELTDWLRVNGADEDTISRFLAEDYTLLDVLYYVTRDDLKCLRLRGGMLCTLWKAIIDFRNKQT
Chain of Casein kinase I isoform gamma-1 (Homo sapiens) (Q9HCP0 whole entry, looked up, the tested form may be a part, canonical isoform): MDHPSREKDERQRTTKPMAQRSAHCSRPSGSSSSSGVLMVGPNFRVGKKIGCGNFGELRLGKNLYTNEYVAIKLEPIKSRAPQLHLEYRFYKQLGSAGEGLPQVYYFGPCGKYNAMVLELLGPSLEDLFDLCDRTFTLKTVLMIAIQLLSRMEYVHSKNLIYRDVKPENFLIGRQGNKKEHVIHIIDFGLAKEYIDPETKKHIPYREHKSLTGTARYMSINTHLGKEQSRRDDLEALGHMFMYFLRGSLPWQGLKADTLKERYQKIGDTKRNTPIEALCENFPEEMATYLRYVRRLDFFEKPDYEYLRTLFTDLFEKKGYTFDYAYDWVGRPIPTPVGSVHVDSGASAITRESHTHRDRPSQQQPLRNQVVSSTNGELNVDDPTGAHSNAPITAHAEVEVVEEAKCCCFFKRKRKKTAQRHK

## COc1cc(N2CCC(N3CCN(C)CC3)CC2)ccc1Nc1ncc2c(n1)N(C)c1ccccc1C(=O)N2C
[1]
  inhibition: 100%
[2]
  inhibition: 100%
[3]
  inhibition: 100%
[4]
  inhibition: 94%
[5]
  residual activity: 95%
[6]
  inhibition: 78%
[7]
  residual activity: 84%
[8]
  residual activity: 85%
[9]
  inhibition: 97%
[10]
  residual activity: 99%
[11]
  inhibition: 100%
[12]
  residual activity: 67%
[13]
  inhibition: 2.8%
[14]
  inhibition: 100%
[15]
  inhibition: 99%
[16]
  residual activity: 89%
[17]
  residual activity: 69%
[18]
  inhibition: 89%
[19]
  residual activity: 87%
[20]
  inhibition: 80%
[21]
  residual activity: 79%
[22]
  inhibition: 100%
[23]
  residual activity: 60%
[24]
  inhibition: 100%
[25]
  inhibition: 100%
[26]
  inhibition: 100%
[27]
  inhibition: 100%
[28]
  inhibition: 100%

## COc1cc(C(=O)N2CCC(N3CCN(C)CC3)CC2)ccc1Nc1ncc2c(n1)N(C1CCCC1)c1ccccc1C(=O)N2C
[29]
  inhibition: -0.3%
